In patent publication EP2678315B1, “(Pyridin-4-yl)benzylamides as allosteric modulators of alpha 7 nAChR” (Janssen Pharmaceutica, N.V., priority 2011, dated 2012):
Read-outs that look alike come from different tables or passages of the source.

What was measured:
human alpha 7-wt nAChR [1] = biological target: T1, human alpha 7-wt nAChR (Homo sapiens, UniProt P36544); assay: Patch-clamp current recording (whole-cell voltage-clamp, GH4C1 cells); assay type: cell-based; set-up: key: Type 0 compounds minimally change the effect size of the current elicited by 1 mM choline.; Type 1 compounds enhance the effect size of the current elicited by 1 mM choline but minimally alter the kinetics of the receptor.; Type 2 compounds enhance the effect size of the current elicited by 1 mM choline while reducing the rate and/or the extent of desensitization.; Type 3 compounds enhance the effect size of the current elicited by 1 mM choline. When tested at higher concentrations up to 10 µM they completely inhibit desensitization; Type 4 compounds allow for an initial desensitization of the receptor followed by a re-opening of the receptor during agonist application; conditions: current elicited by 1 mM choline
T1 construct: expressed in transfected cells
Description: The compounds of the present invention are classified as type 1-4, based on qualitative kinetic properties, as determined by whole-cell voltage-clamp recordings. This classification is based on the effect of an alpha 7 PAM compound, as described hereinbefore, on the signal elicited by an agonist application. In particular, said agonist is choline at a concentration of 1mM. In a preferred experimental setting, said alpha 7 PAM compound and choline are simultaneously applied to the cell, as described hereinafter. Desensitization is defined as the closure of the receptor upon activation during the application of the agonist in whole-cell voltage-clamp electrophysiology measurements seen as the reduction of the […] current after initial activation by the agonist.
The definition of the PAM types 1-4 is described hereinafter: Type 0 compounds minimally change the effect size of the current elicited by 1 mM choline. Type 1 compounds enhance the effect size of the current elicited by 1 mM choline but minimally alter the kinetics of the receptor. In particular, the rate and the extent of desensitization and of deactivation of the receptor elicited by the agonist is not affected. The compound-modulated response to 1 mM choline, therefore, is close to a linear scaling of the 1 mM choline response in absence of the alpha 7 PAM compound: Type 2 compounds enhance the effect size of the current elicited by 1 mM choline while reducing the rate and/or the extent of desensitization. Deactivation of the receptor is generally unaffected. Type 3 compounds enhance the effect size of the current elicited by 1 mM choline. […] Deactivation of the receptor may be slowed down. Type 4 compounds allow for an initial desensitization of the receptor followed by a re-opening of the receptor during agonist application. At low-potency concentrations of the alpha 7 PAM compound, the agonist-induced activation, which is followed by desensitization, can still be separated from the compound-induced re-opening as an initial inward current-maximum. At higher potency concentrations of the alpha 7 PAM compound, the re-opening occurs faster than the closure due to desensitization so that the initial current-maximum disappears.
A compound was considered to have interesting PAM-like activity when the potentiation of the peak current was at least 200% compared to the control choline response (= 100%). Such compounds are classified as belonging to a particular PAM type in the Experimental Part. Compounds not meeting the condition are not classified as belonging to a particular PAM-type.
The compounds also have a potentiating effect on the response to choline when measured by whole-cell patch clamp electrophysiology in GH4C1 cells stably over-expressing the human wild-type alpha 7 receptor.
Example D.2 : Patch-clamp current recording
Patch-clamp recording from mammalian cells has provided a powerful means of assessing the function of membrane-bound proteins thought to be subunits of ligand-gated ion channels. Activation of such proteins by endogenous or exogenous ligands cause opening of a pore associated with the receptor through which ions flow down their electrochemical gradient. In the case of the human alpha 7-wt nAChR-expressing GH4C1 recombinant cell line the preferential permeability to calcium of this receptor means that calcium flows into the cell upon activation by ACh, choline and other nicotinic ligands giving rise to a calcium current. Since this receptor rapidly desensitizes in the presence of agonist it is important that an application system is used which is capable of very rapid switching of solutions (< 100 ms) to prevent partial or full desensitisation of receptor responses coincident with the time of agonist application. Consequently, a second convenient technique to assess the enhancement of nicotinic efficacy is a patch-clamp recording from human alpha 7-wt nAChR-expressing GH4C1 cells coupled with a rapid-application system. […]

human alpha 7-wt nAChR [2] = biological target: T1, human alpha 7-wt nAChR; assay: Ca2+ flux imaging (FDSS) (protocol B); assay type: cell-based; conditions: for Emax: read-out: % Efficacy
Description: Example D.1 : Ca^2+ flux imaging (FDSS) (protocol B)
• a) Assay buffer Hanks buffered saline solution (HBSS, Invitrogen, Belgium), supplemented with 10 mM HEPES (Invitrogen, Belgium), CaCl2 to a final concentration of 5 mM, 0.1 % Bovine serum albumin (Sigma-Aldrich NV, Belgium). • b) Calcium-sensitive dye - Fluo-4AM Fluo-4AM (Molecular Probes, USA) was dissolved in DMSO containing 10% Pluronic acid (Molecular Probes, USA) to give a stock solution which was diluted in assay buffer supplemented with 5 mM probenicid (Sigma, Aldrich NV, Belgium) to give a final concentration of 2 µM • c) 384-well plates Black-sided, transparent bottomed 384 well plates coated with poly-D-lysine, PDL pre-coated (Coming, Incorporated, USA) • d) Calcium flux measurement A Functional drug screening system (FDSS, Hamamatsu) was used to measure intracellular free-calcium flux signals.
Monolayers of human alpha 7-wt nAChR-expressing cells were grown in black-sided, transparent bottomed 384 well plates coated with PDL for 24 hours prior to loading with a fluorescent calcium indicator, fluo-4AM for up to 120 minutes.
PAM activity was detected in real time by applying the compounds to be tested to the loaded cells along with an alpha 7 nicotinic receptor agonist during constant monitoring of cellular fluorescence in a FDSS. Compounds giving peak fluorescent responses greater than the response due to agonist alone, were consideted to be alpha 7 nAChR PAMs. The alpha 7 nicotinic receptor agonist was choline, applied at a sub-maximal concentration of 100 µM. In a further setting of the present invention the compounds were applied prior to the alpha 7 nicotinic receptor agonist, in a particular 10 minutes prior to the agonist.
A control response to choline was calculated on each plate from the difference in peak in fluorescence in wells receiving either choline or assay buffer alone. Compounds of the present invention were tested at a concentration range from 0.01 µM to 30 µM. Compounds were considered to have an interesting activity when they potentiated the choline signal at least with 200 % when tested at a concentration of 30 µM (the efficacy of 100 µM choline was defined as 100% in the absence of a PAM). An EC50 (or pEC50) was determined as a concentration relating to half the maximal effect, when a clear sigmoidal curve with top plateau was obtained.

[3] = Ca2+ assay as described in D.1, read-out: pEC50 (converted)

T1 sequence (P36544 23-502): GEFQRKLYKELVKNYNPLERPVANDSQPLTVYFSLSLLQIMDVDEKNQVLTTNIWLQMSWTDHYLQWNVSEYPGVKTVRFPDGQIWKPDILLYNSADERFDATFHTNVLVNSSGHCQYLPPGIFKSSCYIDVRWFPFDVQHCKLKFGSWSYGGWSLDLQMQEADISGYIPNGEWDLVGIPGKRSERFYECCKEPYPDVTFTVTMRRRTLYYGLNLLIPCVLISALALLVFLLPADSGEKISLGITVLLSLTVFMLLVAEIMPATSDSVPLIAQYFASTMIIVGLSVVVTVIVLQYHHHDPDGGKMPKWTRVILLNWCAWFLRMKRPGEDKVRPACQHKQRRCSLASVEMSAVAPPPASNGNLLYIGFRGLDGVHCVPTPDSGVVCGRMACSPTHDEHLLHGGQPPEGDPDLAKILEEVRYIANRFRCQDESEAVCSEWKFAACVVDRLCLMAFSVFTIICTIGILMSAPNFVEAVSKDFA

| Compound | PAM type (human alpha 7-wt nAChR [1]) | EC50 (human alpha 7-wt nAChR [2]; [3]) [nM] | Emax (human alpha 7-wt nAChR [2]; Ca2+ assay as described in D.1) [%] | EC50 (human alpha 7-wt nAChR [2]) [nM] | Emax (human alpha 7-wt nAChR [2]) [%] |
| --- | --- | --- | --- | --- | --- |
| Cc1cc(-c2ccc(N3C[C@@H](C)O[C@@H](C)C3)cc2CNC(=O)CC2CC2)cc(C)n1 [Compound 1, N-[[5-[(2R,6S)-2,6-dimethyl-4-morpholinyl]-2-(2,6-dimethyl-4-pyridinyl)phenyl]methyl]-cyclopropaneacetamide] | 3 | 40.7 |  |  |  |
| Cc1cc(-c2ccc(N3C[C@@H](C)O[C@@H](C)C3)cc2CNC(=O)C(C)C)cc(C)n1 [Compound 2, N-[[5-[(2R,6S)-2,6-dimethyl-4-morpholinyl]-2-(2,6-dimethyl-4-pyridinyl)phenyl]methyl]-2-methyl-propanamide] | 2 | 37.2 | 817 |  |  |
| Cc1cc(-c2ccc(N3C[C@@H](C)O[C@@H](C)C3)cc2CNC(=O)c2cc(C)on2)cc(C)n1 [Compound 3] | 1 |  |  | 457 |  |
| Cc1cc(-c2ccc(N3C[C@@H](C)O[C@@H](C)C3)cc2CNC(=O)c2conc2C)cc(C)n1 [Compound 4] | 2 | 45.7 |  |  |  |
| Cc1cc(-c2ccc(N3C[C@@H](C)O[C@@H](C)C3)cc2CNC(=O)C2CC2)cc(C)n1 [Compound 6] | 2 | 120 |  |  |  |
| Cc1cc(-c2c(F)cc(N3C[C@@H](C)O[C@@H](C)C3)cc2CNC(=O)C2CCOCC2)cc(C)n1 [Compound 86] | 3 | 148 |  |  |  |
| Cc1cc(-c2c(F)cc(N3C[C@@H](C)O[C@@H](C)C3)cc2CNC(=O)C2CC2)ccn1 [Compound 88] | 2 | 209 |  |  | 868 |
| Cc1cc(-c2c(F)cc(N3C[C@@H](C)O[C@@H](C)C3)cc2CNC(=O)C(C)C)ccn1 [Compound 89] | 2 | 72.4 |  |  |  |
| Cc1cc(-c2c(F)cc(N3C[C@@H](C)O[C@@H](C)C3)cc2CNC(=O)c2conc2C)ccn1 [Compound 91] | 2 | 61.7 |  |  |  |
| Cc1cc(-c2c(F)cc(N3CCO[C@@H](C(F)(F)F)C3)cc2CNC(=O)C(C)C)cc(C)n1 [Compound 99] | 3 | 9.77 |  |  | 292 |
| Cc1cc(-c2c(F)cc(N3CCO[C@@H](C(F)(F)F)C3)cc2CNC(=O)c2cc(C)on2)cc(C)n1 [Compound 100] | 2 | 155 |  |  |  |
| Cc1cc(-c2c(F)cc(N3CCO[C@@H](C(F)(F)F)C3)cc2CNC(=O)C2CC2)cc(C)n1 [Compound 102] | 3 | 33.1 |  |  | 962 |
| Cc1cc(-c2c(F)cc(N3CCO[C@@H](C(F)(F)F)C3)cc2CNC(=O)c2conc2C)cc(C)n1 [Compound 103] | 3 | 16.6 |  |  | 796 |
| Cc1cc(-c2c(F)cc(N3CCO[C@@H](C(F)(F)F)C3)cc2CNC(=O)CC2CC2)cc(C)n1 [Compound 104] | 3 | 9.12 |  |  |  |
| Cc1cc(-c2c(F)cc(N3CCO[C@H](C(F)(F)F)C3)cc2CNC(=O)CC2CCC2)cc(C)n1 [Compound 105] | 3 | 17 |  |  | 559 |
